Measured values reported in patent US20250326757A1, “SOLID FORMS OF HETEROCYCLYLAMIDES AS IRAK4 INHIBITORS” (AstraZeneca AB, priority 2022, published 2025).

How the values were obtained:
[1] = assay type: physicochemical; settings: 70° C., low (11%) and high (75%) relative humidity, 21 days
Description: The physical and chemical stability of N-(Imidazo[1,2-b]pyridazin-3-yl)-6-methoxy-2-((1r,4r)-4-(N-methylacetamido)cyclohexyl)-2H-indazole-5-carboxamide Form A was further assessed under stressed conditions (elevated temperature (70° C.) at low (11%) and high (75%) relative humidity) over a period of 21 days according to standard protocols. Briefly, samples of Form A material were weighed into sample vials, the sample vials were placed in separate jars each containing a MadgeTech temperature and humidity logger and, in a separate vial, a saturated solution of either lithium chloride (to give 11% relative humidity) or sodium chloride (to give 75% relative humidity). The two jars (low/high humidity) were then sealed and placed in a calibrated oven at a temperature of 70° C. for a period of 21 days. Control samples were maintained in sealed vials in a refrigerator for the duration of the study.
Furthermore, XRPD confirmed that the physical form of the material over the course of the study was unchanged. It could thus be concluded that no chemical degradation of the samples or change in their physical form occurred on storage under stressed conditions. Accordingly, the suitability of N-(Imidazo[1,2-b]pyridazin-3-yl)-6-methoxy-2-((1r,4r)-4-(N-methylacetamido)cyclohexyl)-2H-indazole-5-carboxamide Form A for further development in pharmaceutical formulations was established.

[2] = assay type: physicochemical
Description: Amorphous Compound (I) (20 mg) was suspended in 2-propanol (800 μL) and stirred at room temperature for 2 weeks. The resultant solid was collected by filtration.

COc1cc2nn([C@H]3CC[C@H](N(C)C(C)=O)CC3)cc2cc1C(=O)Nc1cnc2cccnn12 [Form A, N-(Imidazo[1,2-b]pyridazin-3-yl)-6-methoxy-2-((1r,4r)-4-(N-methylacetamido)cyclohexyl)-2H-indazole-5-carboxamide Form A]
Physical form by XRPD over the course of the study [1]: unchanged
Stability to prolonged storage under accelerated ageing conditions [2]: stable
